Experimental data: patent US12428396B2, “Fused pyridine ring derivative, preparation method therefor, and pharmaceutical use thereof” (priority 2019, dated 2025)

How the values were obtained:
HIV-1 capsid protein = target: T1, HIV-1 capsid protein (Human immunodeficiency virus type 1 group M subtype B, UniProt P12493); assay: In vitro polymerization of HIV-1 capsid protein (His-CA/GST-CA, Eu cryptate/XL665 energy transfer); format: biochemical, HIV-1 NL4-3; conditions: for Imax: 37° C., 2 h incubation
T1 construct: made in house; host or cells: E. coli (pET30 vector)
Source text: • 1. MAb Anti GST-Eu cryptate (Cisbio) • 2. MAb Anti 6HIS-XL665 (Cisbio) • 3. His tag HIV-1 capsid protein (hereinafter referred to as His-CA) • 4. GST tag HIV-1 capsid protein (hereinafter referred to as GST-CA) • 5. 384-well unbound surface microplate, white (Corning) • 6. Microplate reader (BMG)
The HIV-1 capsid proteins aggregate spontaneously in high-salt solutions. Capsid protein sequences derived from HIV-1 NL4-3 strains (GeneBank AF324493.2) were separately tagged with 6His tag and GST tag sequences at the C-terminus, cloned into pET30 vectors, and expressed and separately tagged for expression in E. coli system and purified. His-CA and GST-CA were mixed at high-salt concentrations, and the level of polymerization of capsid proteins was detected using GST antibody labeled with Eu3+-Cryptate (energy donor) and His antibody labeled with XL665 (energy acceptor). Since the excitation spectrum of Eu3+-Cryptate overlapped with the excitation spectrum of XL665, when the capsid proteins with these two tags formed a poly complex, the energy donor and the energy acceptor could be drawn to a sufficiently close distance, the energy donor released part of the captured energy under the excitation of an external light source (such as a xenon lamp or a laser), with the emission wavelength being 620 nM, part of the resonance was transferred to the energy acceptor to excite the energy acceptor, with the emission wavelength being 665 nM, and an optical signal was generated, the signal intensity of which was in direct proportion to the degree of polymerization of the tag proteins.
His-CA was diluted to 2 μM in a clean tube with protein diluent (50 mM Tris-HCl, pH 8.0, 50 mM NaCl, 0.4 mM MgCl2, 0.05% Triton X-100, 2% glycerol) while MAb Anti 6HIS-XL665 at a final concentration of 260 nM was added; GST-CA was diluted to 20 nM with protein diluent in another clean tube while MAb Anti GST-Eu cryptate at a final concentration of 3.33 nM was added and incubated on ice for half an hour. Compounds were first formulated into a concentration of 20 mM with DMSO, then diluted to a first concentration of 2 mM with DMSO and serially 5-fold diluted to the 8th concentration. Control wells were set and added with DMSO, and serially-diluted compounds were then 20-fold diluted with protein diluent to 10-fold working concentrations. Preparation of capsid protein polymerization liquid at 2-fold concentration: 50 mM Tris-HCl, pH 8.0, 1 M NaCl, 800 mM KF; to a pre-cooled white round-bottomed 384-well plate were added 4 uL of His-CA-His antibody mixture, 4 uL of GST-CA-GST antibody mixture, 2 uL of the compounds at 10-fold concentration and 10 uL of capsid protein polymerization reaction liquid at 2-fold concentration, the plate was sealed with a light-shielding sealing plate membrane after uniformly mixing, and the reaction plate was placed in a 37° C. incubator for incubation for 2 h. After incubation, the samples were excited with an excitation light at 337 nM, and signal values at 620 nM and 665 nM were collected for detection, wherein Ratio values=(665 nM/620 nM signal)×10000 was calculated according to the signal values. IC50 values for compounds were calculated using Graphpad Prism software based on each concentration of the compounds and the corresponding Ratio values.

[1] = Thermodynamic stability test of atropisomerism (LC-MS); format: physicochemical
Procedure: Agilent 1200 DAD model LC-MS; column: waters sunfire C18, 4.6×75 mm, 3.5 μm; mobile phase: water (0.1% trifluoroacetic acid):acetonitrile (0.1% trifluoroacetic acid).
The compounds of Examples 1-1a, 1-1b were atropisomers of each other and had different retention times in the LC-MS spectra, and the tautomerism of the atropisomers could be detected by LC-MS.
Compound 1-1a (1.5 mg) was dissolved in acetonitrile (1.0 mL), and the reaction solution was heated at 40° C. for 1.0 h, and the change in purity of compound 1-1a was detected by LC-MS. Compound 1-1a (1.5 mg) was dissolved in dimethyl sulfoxide (1.0 mL), and the reaction solution was heated at 120° C. for 3.0 h, and the change in purity of compound 1-1a was detected by LC-MS.
The same procedure was used to test the change in purity of compound 1-1b at 40° C. and 120° C.
The compounds of Examples 5-1, 5-2 were atropisomers of each other and had different retention times in the LC-MS spectra, and the tautomerism of the atropisomers could be detected by LC-MS.
Compound 5-1 (1.0 mg) was dissolved in DMSO (1.0 mL), and the reaction solution was heated at 37° C. and 120° C. for 3.0 h, respectively, and the change in purity of compound 5-1 was detected by LC-MS.

SMILES | IC50 (HIV-1 capsid protein) [nM] | Imax (HIV-1 capsid protein) [%] | atropisomer stability (change in purity by LC-MS) ([1]; heated at 37° C. for 3.0 h in DMSO) | atropisomer stability (change in purity by LC-MS) ([1]; heated at 120° C. for 3.0 h in dimethyl sulfoxide)
CC(C)(C#Cc1nc([C@H](Cc2cc(F)cc(F)c2)NC(=O)Cn2nc(C(F)(F)F)c3c2C(F)(F)[C@@H]2C[C@H]32)c(-c2ccc(Cl)c3c(NS(=O)(=O)C4CC4)nn(CC(F)(F)F)c23)c2c1CCC2)S(C)(=O)=O (atropisomer, axis not shown; (aR)) [Example 2, N—((S)-1-((R)-4-(4-chloro-3-(cyclopropylsulfonamide)-1-(2,2,2-trifluoroethyl)-1H-indazol-7-yl)-1-(3-methyl-3-(methylsulfonyl)but-1-yn-1-yl)-6,7-dihydro-5H-cyclopenta[c]pyridin-3-yl)-2-(3,5-difluorophenyl)ethyl)-2-((3bS,4aR)-5,5-difluoro-3-(trifluoromethyl)-3 b,4,4a,5-tetrahydro-1H-cyclopropa[3,4]cyclopenta[1,2-c]pyrazol-1-yl)acetamide] | 19 | 100 | – | –
CC(C)(C#Cc1nc([C@H](Cc2cc(F)cc(F)c2)NC(=O)Cn2nc(C(F)(F)F)c3c2C(F)(F)[C@@H]2C[C@H]32)c(-c2ccc(Cl)c3c(NS(C)(=O)=O)nn(CC(F)(F)F)c23)c2c1CCCC2)S(C)(=O)=O (single isomer, unassigned) [Example 5-1] | 37 | 108 | stable single-configuration compound | stable single-configuration compound
CC(C)(C#Cc1nc([C@H](Cc2cc(F)cc(F)c2)NC(=O)Cn2nc(C(F)(F)F)c3c2C(F)(F)[C@@H]2C[C@H]32)c(-c2ccc(Cl)c3c(NS(=O)(=O)C4CC4)nn(CC(F)(F)F)c23)c2c1CCC2)S(=O)(=O)C1CC1 (atropisomer, axis not shown; (aR)) [Example 4, N—((S)-1-((R)-4-(4-chloro-3-(cyclopropylsulfonamide)-1-(2,2,2-trifluoroethyl)-1H-indazol-7-yl)-1-(3-(cyclopropylsulfonyl)-3-methyl-but-1-yn-1-yl)-6,7-dihydro-5H-cyclopenta [c]pyridin-3-yl)-2-(3,5-difluorophenyl)ethyl)-2-((3bS,4aR)-5,5-difluoro-3-(trifluoromethyl)-3b,4,4a,5-tetrahydro-1H-cyclopropa[3,4]cyclopenta[1,2-c]pyrazol-1-1)acetamide] | 68 | 91 | – | –
CC(C)(C#Cc1nc([C@H](Cc2cc(F)cc(F)c2)NC(=O)Cn2nc(C(F)(F)F)c3c2C(F)(F)[C@@H]2C[C@H]32)c(-c2ccc(Cl)c3c(NS(C)(=O)=O)nn(CC(F)(F)F)c23)c2ccccc12)S(C)(=O)=O (atropisomer, axis not shown; (aR)) [Example 6, N—((S)-1-((R)-4-(4-chloro-3-(methanesulfonamido)-1-(2,2,2-trifluoroethyl)-1H-indazol-7-yl)-1-(3-methyl-3-(methanesulfonyl)but-1-yn-1-yl)isoquinolin-3-yl)-2-(3,5-difluorophenyl)ethyl)-2-((3bS,4aR)-5,5-difluoro-3-(trifluoromethyl)-3b,4,4a,5-tetrahydro-1H-cyclopropa[3,4]cyclopenta[1,2-c]pyrazol-1-yl)acetamide] | 107 | 75 | – | –
CC(C)(C#Cc1nc([C@H](Cc2cc(F)cc(F)c2)NC(=O)Cn2nc(C(F)(F)F)c3c2C(F)(F)[C@@H]2C[C@H]32)c(-c2ccc(Cl)c3c(NS(C)(=O)=O)nn(CC(F)(F)F)c23)c2c1CCC2)S(=O)(=O)C1CC1 (atropisomer, axis not shown; (aR)) [Example 3, N—((S)-1-((R)-4-(4-chloro-3-(methanesulfonamido)-1-(2,2,2-trifluoroethyl)-1H-indazol-7-yl)-1-(3-(cyclopropylsulfonyl)-3-methyl-but-1-yn-1-yl)-6,7-dihydro-5H-cyclopenta[c]pyridin-3-yl)-2-(3,5-difluorophenyl)ethyl)-2-((3bS,4aR)-5,5-difluoro-3-(trifluoromethyl)-3b,4,4a,5-tetrahydro-1H-cyclopropa[3,4]cyclopenta[1,2-c]pyrazol-1-yl)acetamide] | 24 | 98 | – | –
